Laboratory results from US11279683B2, “Thiophene derivatives as antiviral agents” (ENYO PHARMA, priority 2016, dated 2022).

These compounds were tested on H1N1 (influenza A/New Caledonia/20/99) (assay: microbe, parasite or virus in culture). Settings: not given.
Type: cell-based

“2-[[6-tert-butoxycarbonyl-3-[(4-chlorophenyl)carbamoyl]-5,7-dihydro-4H-thieno[2,3-c]pyridin-2-yl]carbamoyl]cyclohexanecarboxylic acid [Compound 91]” was tested, and the IC50 was 10 µM.

Same assay, conditions: Influenza A virus, H1N1, A549, 48 h

O=C(O)CCC(=O)Nc1sc2c(c1C(=O)Nc1ccc(Cl)cc1)CCC2 [Compound 50, 4-[[3-[(4-Chlorophenyl)carbamoyl]-5,6-dihydro-4H-cyclopenta[b]thiophen-2-yl]amino]-4-oxo-butanoic acid] and O=C(O)C=CC(=O)Nc1sc2c(c1C(=O)Nc1ccc(Cl)cc1)CCC2 [Compound 43, 4-[[3-[(4-Chlorophenyl)carbamoyl]-5,6-dihydro-4H-cyclopenta[b]thiophen-2-yl]amino]-4-oxo-but-2-enoic acid] are the same in IC50: 33.2 µM for the first, 33.2 µM for the second.

Compared with O=C(Nc1ccc2c(c1)OCO2)c1c(NC(=O)C2CCCCC2C(=O)O)sc2c1CCC2 (stereo not shown) [Compound 3, 2-[[3-(1,3-Benzodioxol-5-ylcarbamoyl)-5,6-dihydro-4H-cyclopenta[b]thiophen-2-yl]carbamoyl]cyclohexanecarboxylic acid], O=C(Nc1ccc2c(c1)COC2)c1c(NC(=O)C2CCCCC2C(=O)O)sc2c1CCC2 (stereo not shown) [Compound 30, 2-[[3-(1,3-Dihydroisobenzofuran-5-ylcarbamoyl)-5,6-dihydro-4H-cyclopenta[b]thiophen-2-yl]carbamoyl]cyclohexanecarboxylic acid] is 1.9-fold higher in IC50: 10.3 µM for the first, 19.6 µM for the second.

CS(=O)(=O)N1CCOCC1C(=O)Nc1sc2c(c1C(=O)Nc1ccc(Cl)cc1)CCC2 (stereo not shown) [Compound 93, N-[3-[(4-chlorophenyl)carbamoyl]-5,6-dihydro-4H-cyclopenta[b]thiophen-2-yl]-4-methylsulfonyl-morpholine-3-carboxamide] and CS(=O)(=O)N1CCCCC1C(=O)Nc1sc2c(c1C(=O)Nc1ccc(Cl)cc1)CCC2 (stereo not shown) [Compound 100, N-[3-[(4-chlorophenyl)carbamoyl]-5,6-dihydro-4H-cyclopenta[b]thiophen-2-yl]-1-methylsulfonyl-piperidine-2-carboxamide] are within 1.5-fold of each other in IC50: 12.7 µM for the first, 16.6 µM for the second.

First: NC(=O)N1CCCC(C(=O)Nc2sc3c(c2C(=O)Nc2ccc(Cl)cc2)CCC3)C1 (stereo not shown) [Compound 92, N3-[3-[(4-chlorophenyl)carbamoyl]-5,6-dihydro-4H-cyclopenta[b]thiophen-2-yl]piperidine-1,3-dicarboxamide]
Second: NS(=O)(=O)N1CCCC(C(=O)Nc2sc3c(c2C(=O)Nc2ccc(Cl)cc2)CCC3)C1 (stereo not shown) [Compound 83, N-[3-[(4-chlorophenyl)carbamoyl]-5,6-dihydro-4H-cyclopenta[b]thiophen-2-yl]-1-sulfamoyl-piperidine-3-carboxamide]
The IC50 of the first is 2.3-fold higher: 11.4 µM for the first, 5.05 µM for the second.

Going from CCc1c(C)sc(NC(=O)C2CCCCC2C(=O)O)c1C(=O)Nc1ccc(Cl)cc1 (stereo not shown) [Compound 59, 2-[[3-[(4-Chlorophenyl)carbamoyl]-4-ethyl-5-methyl-2-thienyl]carbamoyl]cyclohexanecarboxylic acid] to O=C(Nc1ccc(Cl)cc1)c1c(NC(=O)C2CCCCC2C(=O)O)sc2c1CCCC2 (stereo not drawn) [Compound 61, 2-[[3-[(4-Chlorophenyl)carbamoyl]-4,5,6,7-tetrahydrobenzothiophen-2-yl]carbamoyl]cyclohexane-cis-carboxylic acid], the IC50 falls from 53.5 µM to 8.59 µM (6.2-fold).

CC(=O)N1CCC1C(=O)Nc1sc2c(c1C(=O)Nc1ccc(Cl)cc1)CCC2 (stereo not shown) [Compound 84, 1-acetyl-N-[3-[(4-chlorophenyl)carbamoyl]-5,6-dihydro-4H-cyclopenta[b]thiophen-2-yl]azetidine-2-carboxamide] and NS(=O)(=O)N1CCC1C(=O)Nc1sc2c(c1C(=O)Nc1ccc(Cl)cc1)CCC2 (stereo not shown) [Compound 102, N-[3-[(4-chlorophenyl)carbamoyl]-5,6-dihydro-4H-cyclopenta[b]thiophen-2-yl]-1-sulfamoyl-azetidine-2-carboxamide] are within 1.5-fold of each other in IC50: 29.6 µM for the first, 20.9 µM for the second.

First: O=C(Nc1ccc(-c2ccccc2)cc1)c1c(NC(=O)C2CCCCC2C(=O)O)sc2c1CCC2 (stereo not shown) [Compound 10, 2-[[3-[(4-Phenylphenyl)carbamoyl]-5,6-dihydro-4H-cyclopenta[b]thiophen-2-yl]carbamoyl]cyclohexanecarboxylic acid]
Second: O=C(Nc1ccccc1)c1c(NC(=O)C2CCCCC2C(=O)O)sc2c1CCC2 (stereo not shown) [Compound 74, 2-[[3-(Phenylcarbamoyl)-5,6-dihydro-4H-cyclopenta[b]thiophen-2-yl]carbamoyl]cyclohexanecarboxylic acid]
The IC50 of the first is 5.2-fold lower: 2.38 µM for the first, 12.4 µM for the second. The first is the more potent here.

Compared with O=C(Nc1ccc(Cl)cc1)c1c(NC(=O)C2COCCN2)sc2c1CCC2 (stereo not shown) [Compound 103, N-[3-[(4-chlorophenyl)carbamoyl]-5,6-dihydro-4H-cyclopenta[b]thiophen-2-yl]morpholine-3-carboxamide], O=C(Nc1ccc(Cl)cc1)c1c(NC(=O)C2CCN2)sc2c1CCC2 (stereo not shown) [Compound 96, N-[3-[(4-chlorophenyl)carbamoyl]-5,6-dihydro-4H-cyclopenta[b]thiophen-2-yl]azetidine-2-carboxamide] is 1.7-fold lower in IC50: 24.2 µM for the first, 14.1 µM for the second.

First: O=C(Nc1ccc(Cl)cc1)c1c(NC(=O)C2COC2)sc2c1CCC2 [Compound 94, N-[3-[(4-chlorophenyl)carbamoyl]-5,6-dihydro-4H-cyclopenta[b]thiophen-2-yl]oxetane-3-carboxamide]
Second: O=C(Nc1ccc(Cl)cc1)c1c(NC(=O)C2CCCCC2)sc2c1CCC2 [Compound 52, N-(4-Chlorophenyl)-2-(cyclohexanecarbonylamino)-5,6-dihydro-4H-cyclopenta[b]thiophene-3-carboxamide]
The IC50 of the first is 2.3-fold lower: 12.9 µM for the first, 29.3 µM for the second. The first is the more potent here.

Compared with O=C(Nc1cnc(Cl)cn1)c1c(NC(=O)C2CCCCC2C(=O)O)sc2c1CCC2 (stereo not shown) [Compound 26, 2-[[3-[(5-Chloropyrazin-2-yl)carbamoyl]-5,6-dihydro-4H-cyclopenta[b]thiophen-2-yl]carbamoyl]cyclohexanecarboxylic acid], Cc1ccc(NC(=O)c2c(NC(=O)C3CCCCC3C(=O)O)sc3c2CCC3)cc1Cl (stereo not shown) [Compound 14, 2-[[3-[(3-chloro-4-methyl-phenyl)carbamoyl]-5,6-dihydro-4H-cyclopenta[b]thiophen-2-yl]carbamoyl]cyclohexanecarboxylic acid] is 4-fold lower in IC50: 19.3 µM for the first, 4.78 µM for the second.

First: CO[C@H]1CC[C@H](NC(=O)c2c(NC(=O)C3CCCCC3C(=O)O)sc3c2CCC3)CC1 (stereo partly drawn) [Compound 8, 2-[[3-[(Trans-4-methoxycyclohexyl)carbamoyl]-5,6-dihydro-4H-cyclopenta[b]thiophen-2-yl]carbamoyl]cyclohexanecarboxylic acid]
Second: Cc1ccc(NC(=O)c2c(NC(=O)C3CCCCC3C(=O)O)sc3c2CCC3)cc1C (stereo not shown) [Compound 1, 2-[[3-[(3,4-Dimethylphenyl)carbamoyl]-5,6-dihydro-4H-cyclopenta[b]thiophen-2-yl]carbamoyl]cyclohexanecarboxylic acid]
The IC50 of the first is 3.5-fold higher: 27.4 µM for the first, 7.78 µM for the second.

CC(C)(C)c1ccc(NC(=O)c2c(NC(=O)C3CCCCC3C(=O)O)sc3c2CCC3)cc1 (stereo not shown) [Compound 21, 2-[[3-[(4-tert-Butylphenyl)carbamoyl]-5,6-dihydro-4H-cyclopenta[b]thiophen-2-yl]carbamoyl]cyclohexanecarboxylic acid] and O=C(Nc1ccc(OC(F)(F)F)cc1)c1c(NC(=O)C2CCCCC2C(=O)O)sc2c1CCC2 (stereo not shown) [Compound 20, 2-[[3-[[4-(Trifluoromethoxy)phenyl]carbamoyl]-5,6-dihydro-4H-cyclopenta[b]thiophen-2-yl]carbamoyl]cyclohexanecarboxylic acid] are within 1.5-fold of each other in IC50: 4.68 µM for the first, 6.48 µM for the second.

First: O=C(O)CC1(CC(=O)Nc2sc3c(c2C(=O)Nc2ccc(Cl)cc2)CCC3)CCCC1 [Compound 45, 2-[1-[2-[[3-[(4-Chlorophenyl)carbamoyl]-5,6-dihydro-4H-cyclopenta[b]thiophen-2-yl]amino]-2-oxo-ethyl]cyclopentyl]acetic acid]
Second: O=C(Nc1ccc(Cl)cc1)c1c(NC(=O)C2CCCC(C(=O)O)C2)sc2c1CCC2 (stereo not shown) [Compound 99, 3-[[3-[(4-chlorophenyl)carbamoyl]-5,6-dihydro-4H-cyclopenta[b]thiophen-2-yl]carbamoyl]cyclohexanecarboxylic acid]
The IC50 of the first is 2-fold lower: 8.1 µM for the first, 16.6 µM for the second.

Going from O=C(NCc1cccc(Cl)c1)c1c(NC(=O)C2CCCCC2C(=O)O)sc2c1CCC2 (stereo not shown) [Compound 11, 2-[[3-[(3-Chlorophenyl)methylcarbamoyl]-5,6-dihydro-4H-cyclopenta[b]thiophen-2-yl]carbamoyl]cyclohexanecarboxylic acid] to O=C(Nc1ccc(Cl)cc1)c1c(NC(=O)C2CCC(C(=O)O)CC2)sc2c1CCC2 (single isomer, unassigned) [Compound 97, 4-[[3-[(4-chlorophenyl)carbamoyl]-5,6-dihydro-4H-cyclopenta[b]thiophen-2-yl]carbamoyl]cyclohexanecarboxylic acid], the IC50 rises from 8.63 µM to 14.7 µM (1.7-fold).

First: Cc1nccn1CC(=O)Nc1sc2c(c1C(=O)Nc1ccc(Cl)cc1)CCCC2 [Compound 75, N-(4-Chlorophenyl)-2-[[2-(2-methylimidazol-1-yl)acetyl]amino]-4,5,6,7-tetrahydrobenzothiophene-3-carboxamide]
Second: O=C(Cc1cnccn1)Nc1sc2c(c1C(=O)Nc1ccc(Cl)cc1)CCC2 [Compound 78, N-(4-chlorophenyl)-2-[(2-pyrazin-2-ylacetyl)amino]-5,6-dihydro-4H-cyclopenta[b]thiophene-3-carboxamide]
The IC50 of the first is 17-fold higher: 17.1 µM for the first, 1 µM for the second.

Going from CS(=O)(=O)N1CCCC(C(=O)Nc2sc3c(c2C(=O)Nc2ccc(Cl)cc2)CCC3)C1 (stereo not shown) [Compound 95, N-[3-[(4-chlorophenyl)carbamoyl]-5,6-dihydro-4H-cyclopenta[b]thiophen-2-yl]-1-methylsulfonyl-piperidine-3-carboxamide] to NS(=O)(=O)N1CCCCC1C(=O)Nc1sc2c(c1C(=O)Nc1ccc(Cl)cc1)CCC2 (stereo not shown) [Compound 80, N-[3-[(4-chlorophenyl)carbamoyl]-5,6-dihydro-4H-cyclopenta[b]thiophen-2-yl]-1-sulfamoyl-piperidine-2-carboxamide], the IC50 falls from 13.7 µM to 2.25 µM (6.1-fold).

O=C(CC1CCOCC1)Nc1sc2c(c1C(=O)Nc1ccc(Cl)cc1)CCC2 [Compound 81, N-(4-chlorophenyl)-2-[(2-tetrahydropyran-4-ylacetyl)amino]-5,6-dihydro-4H-cyclopenta[b]thiophene-3-carboxamide] gave an IC50 of 3.9 µM.
